Assay results reported in US20240050422A1, “DRUG DELIVERY VIA MONOACYLGLYCEROL AND FREE FATTY ACID-BASED COMPOSITIONS” (GLYCOSBIO, INC., priority 2021, published 2024).
Where two headings read alike, the source gives them in different places.

What was measured:
[1] = cited from earlier work
[2] = at 3 hours; 0.5 mg/mL
Experimental: Approximately 1 mL of bupivacaine solution (0.5 mg/mL in water) or bupivacaine nanoemulsion (0.5 mg/mL in nS100) were added to the donor chamber. At each time point, 70 μL was removed from the receiver chamber and replaced with an equivalent volume of fresh PBS to maintain constant volume. The aliquot from each time point was analyzed by HPLC to determine amount of drug permeating through the membrane over time. The HPLC system consisted of an LC-20AD pump, SIL-20AC HT autosampler, CTO-20A column oven, and SPD-20A UV/vis detector (Shimadzu Scientific Instruments, Inc.). HPLC conditions were: 30 μL injection volume, isocratic elution of mobile phase consisting of 75% methanol and 25% 10 mM sodium phosphate buffer (pH 7.8), flow rate of 1.000 mL/min, column temperature of 40° C., and detection at 263 nm.

[3] = over 7 hours; 1 mg/mL, pH 5-6
Experimental: At each time point, 80 μL was removed from the receiver chamber and replaced with an equivalent volume of fresh PBS to maintain constant volume. The aliquot from each time point was analyzed by HPLC to determine amount of drug permeating through the membrane over time. The HPLC system consisted of an LC-20AD pump, SIL-20AC HT autosampler, CTO-20A column oven, and SPD-20A UV/vis detector (Shimadzu Scientific Instruments, Inc.). HPLC conditions were: 30 μL injection volume, isocratic elution of mobile phase consisting of 50% methanol and 50% phosphoric acid (0.1%), flow rate of 1.000 mL/min, column temperature of 40° C., and detection at 275 nm.

[4] = over 24 hours; 10 mg/mL
Experimental: Sesame EMO nanoemulsion (nS50) was prepared from a combination of sesame EMO and FFA oil. Sesame EMO (0.852 g) and sesame FFA (0.648 g) were weighed into a 50 mL metal beaker and heated to 60° C. A coarse emulsion was prepared by adding 13.5 mL water (pre-heated to 60° C.) to the oil. The mixture was subjected to high-sheer homogenizer for 30 seconds, resulting in a milky coarse emulsion. The coarse emulsion was then transferred to QSonica Q700CA sonicator with ½ inch probe. The emulsion was processed for 2 cycles (5 minutes sonication/2 minutes cooling) at 90% power. […] At each time point, 70 μL was removed from the receiver chamber and replaced with an equivalent volume of fresh PBS to maintain constant volume. The aliquot from each time point was analyzed by HPLC to determine amount of drug permeating through the membrane over time. The HPLC system consisted of an LC-20AD pump, SIL-20AC HT autosampler, CTO-20A column oven, and SPD-20A UV/vis detector (Shimadzu Scientific Instruments, Inc.). HPLC conditions were: 30 μL injection volume, isocratic elution of mobile phase consisting of 60% methanol and 40% phosphoric acid (0.1%), flow rate of 1.000 mL/min, column temperature of 40° C., and detection at 210 nm.

[5] = 10 mg/mL
Experimental: Sesame EMO nanoemulsion (nS50) was prepared from a combination of sesame EMO and FFA oil. Sesame EMO (0.852 g) and sesame FFA (0.648 g) were weighed into a 50 mL metal beaker and heated to 60° C. A coarse emulsion was prepared by adding 13.5 mL water (pre-heated to 60° C.) to the oil. The mixture was subjected to high-sheer homogenizer for 30 seconds, resulting in a milky coarse emulsion. The coarse emulsion was then transferred to QSonica Q700CA sonicator with ½ inch probe. The emulsion was processed for 2 cycles (5 minutes sonication/2 minutes cooling) at 90% power. Approximately 1 mL of trifluoroacetyl tripeptide-2 (Cayman Chemical Company) solution (10 mg/mL in 10% DMSO in water) or trifluoroacetyl tripeptide-2 nanoemulsion (10 mg/mL in 10% DMSO in nS50) were added to the donor chamber. At each time point, 70 μL was removed from the receiver chamber and replaced with an equivalent volume of fresh PBS to maintain constant volume. The aliquot from each time point was analyzed by HPLC to determine amount of drug permeating through the membrane over time.

For `C=C(C)[C@@H]1CCC(C)=C[C@H]1c1c(O)cc(CCCCC)cc1O` [CBD, cannabidiol], which solubility in water [1] is on record?
The solubility in water was “essentially insoluble in water”.

With `CCCCN1CCCCC1C(=O)Nc1c(C)cccc1C` (stereo not drawn) [free drug control (bupivacaine), bupivacaine] as the compound, how does the bupivacaine permeation [2] read?
The bupivacaine permeation was “undetectable permeation”.

For `O=C(O)c1ccccc1O` [free drug control (salicylic acid), salicylic acid], which salicylic acid permeation [3] is on record?
Its salicylic acid permeation is “no salicylic acid permeation”.

With “hexapeptide-11 [free peptide control (hexapeptide-11)]” as the compound, how does the hexapeptide-11 permeation [4] read?
Its hexapeptide-11 permeation is “no peptide permeation”.

Which “trifluoroacetyl tripeptide-2 permeation” value ([5]; after 24 hours) does the source give for trifluoroacetyl tripeptide-2 here?
The value was 1.1 ug/cm^2.

And the “trifluoroacetyl tripeptide-2 permeation” value ([5]; at 6 hours)?
Its value is “no peptide permeation”.
